Here are results for four compounds from article PMC9220410, “Antiamoebic Properties of Laboratory and Clinically Used Drugs against Naegleria fowleri and Balamuthia mandrillaris” (Antibiotics, 2022).

Data set [1] relates to N. fowleri trophozoites. Put plainly: Amoebicidal assay against N. fowleri trophozoites (Trypan blue). The conditions noted are these: for minimal effective concentration / EC50: Naegleria fowleri; for minimal effective concentration: compared to solvent control, p < 0.05, 24 h, read-out: Lowest concentration showing significant amoebicidal activity against N. fowleri; for EC50: trophozoites, 24 h, Trypan blue, read-out: Half maximal effective concentration (EC50), N. fowleri; for Amoebicidal activity against N. fowleri: summary in discussion, concentration not given. The format is cell-based, Naegleria fowleri. As to the method: (§1) Amoebicidal assays were performed as previously described. Briefly, 5 × 10^5 amoebae (N. fowleri and B. mandrillaris cells) were incubated with drugs and/or solvents in 24-well plates in RPMI-1640. Amoebae were incubated with RPMI-1640 for negative controls while DMSO and ethanol were used as solvent control. For the positive control, the anti-amoebic drug, 100 μM miltefosine was used. Plates were incubated at 37 °C and 5% CO2 for 24 h. Next, 0.1% Trypan blue was added to each well. […] The number of live cells (i.e., unstained) was counted using a haemocytometer to determine amoebicidal effects of various compounds. The data are representative of the mean ± standard error of several experiments performed in duplicate.
Figure 1 The amoebicidal activities of compounds against N. fowleri trophozoites. N. fowleri trophozoites were incubated with various concentrations of compounds for 24 h and trophozoites viability was determined using Trypan blue. Percentage amoebicidal activity was calculated by: [((RPMI cell count − cell count for sample)/RPMI cell count) × 100)]. The activities of solvents alone were negated from the activities of the compounds. The data is presented as the mean ± standard error (*: p < 0.05, **: p < 0.01, ***: p < 0.001 using student t-test; two tailed distribution).

In data set [2] the test system is B. mandrillaris trophozoites. As to the kind of experiment: Amoebicidal assay against B. mandrillaris trophozoites (Trypan blue). The class given is cell-based, Balamuthia mandrillaris. The conditions noted are these: for EC50: Balamuthia mandrillaris, trophozoites, 24 h, Trypan blue, read-out: Half maximal effective concentration (EC50), B. mandrillaris; for Amoebicidal activity against B. mandrillaris: summary in discussion, concentration not given. As for the experimental part:
as §1
Figure 2 The amoebicidal activities of compounds against B. mandrillaris trophozoites. B. mandrillaris trophozoites were incubated with various concentrations of compounds for 24 h and trophozoites viability was determined using Trypan blue. Percentage amoebicidal activity was calculated by: [((RPMI cell count − cell count for sample)/RPMI cell count) × 100)]. The activities of solvents alone were negated from the activities of the compounds. The data is presented as the mean ± standard error (*: p < 0.05, **: p < 0.01, ***: p < 0.001 using student t-test; two tailed distribution).

Data set [3] has as its system N. fowleri cysts. As to the kind of experiment: Excystation assay, N. fowleri cysts. The class given is cell-based, Naegleria fowleri. The settings on record: 100 μM, after negating effects of solvent alone; for inhibition at 100 µM: Naegleria fowleri, read-out: Inhibition of excystation of N. fowleri. As to the method:
(§2) Briefly, 5 × 10^5 amoebae cysts (N. fowleri and B. mandrillaris cells) were incubated with 100 μM drugs and/or solvent in 24-well plates containing RPMI-1640 on HeLa monolayers at 37 °C and 5% CO2 until around 75% of the cysts in RPMI-1640 alone have excysted. The RPMI-1640 alone was used as a negative control while DMSO and ethanol were used as a solvent control and 100 μM miltefosine was used as positive control. Live trophozoites (amoebae that excysted) were then quantified by counting live (unstained) cells, after addition of 0.1% Trypan blue to each well, using a haemocytometer. Percentage inhibition is defined as: [(Number of trophozoites in untreated well − Number of trophozoites in treated well)/Number of trophozoites in untreated well)] × 100. The data are representative of the mean ± standard error of several independent experiments performed in duplicate.
(§3) Figure 3 (A) Inhibition of excystation of N. fowleri cysts. N. fowleri cysts were incubated with 100 μM drugs and/or solvent in 24-well plates containing RPMI-1640 on HeLa monolayers for 24 h and number of viable trophozoites were then enumerated. Percentage inhibition of excystation was calculated by: [((RPMI trophozoite cell count − trophozoite cell count for sample)/RPMI trophozoite cell count) × 100)]. The activities of solvents alone were negated from the activities of the compounds. The data is presented as the mean ± standard error (*: p ˂ 0.05, **: p < 0.01, ***: p < 0.001 using student t-test; two tailed distribution). (B) Inhibition of excystation of B. mandrillaris cysts. B. mandrillaris cysts were incubated with 100 μM drugs and/or solvent in 24-well plates containing RPMI-1640 on HeLa monolayers for 24 h and number of viable trophozoites were then enumerated. Percentage inhibition of excystation was calculated by: [((RPMI trophozoite cell count − trophozoite cell count for sample)/RPMI trophozoite cell count) × 100)]. The activities of solvents alone were negated from the activities of the compounds. The data is presented as the mean ± standard error (*: p ˂ 0.05, **: p < 0.01, ***: p < 0.001 using student t-test; two tailed distribution).

Data set [4] has as its system B. mandrillaris cysts. As to the kind of experiment: Excystation assay, B. mandrillaris cysts. The conditions noted are these: Balamuthia mandrillaris; 100 μM, after negating effects of solvent alone; read-out: Inhibition of excystation of B. mandrillaris. The class given is cell-based. As for the experimental part:
as §2, §3

The subject of data set [5] is HaCaT cells. The class given is cell-based, human. The conditions noted are these: LDH release, 24 h, concentration not given. As to the method:
Cytotoxic effects of the drugs were determined as previously described^21. Briefly, the cytotoxic activity of the drugs was investigated against HaCaT cells. […] The LDH assay protocol is based on an enzymatic reaction, i.e., LDH released from the cell oxidizes lactate to generate NADH, which then reacts with water-soluble tetrazolium salt (WST) to generate a yellow color. The intensity of the generated color correlates directly with the number of lyzed cells. Following this, 1% Triton X-100 was added to the positive control well and incubated the plate for 60 min at 37 °C. For negative control, human cells were grown in RPMI alone well. Then, an equal amount of cells supernatant (comprising LDH enzyme) from each well was combined with equal amount of LDH kit reagents and cytotoxicity was determined in proportion to LDH released from human cells using a spectrophotometer at 490 nm. The percentage LDH released was determined as follows: [(Absorbance of sample − Absorbance of control)/(Absorbance for total LDH release − Absorbance of control)] × 100 = percentage cytotoxicity.
Figure 4 Cytotoxic effects of compounds against human cells are depicted. Various concentrations of compounds were incubated with human cells for 24 h at 37 °C and 5% CO2. RPMI alone was used as negative control and triton X-100 was used as positive control. Data are presented as the mean ± standard error of 2 experiments conducted in duplicates.
Background: Release of lactate dehydrogenase indicates damage to the cell membrane.

Details of data set [6]: method as in PMID 29206032, PMID 32548431. The conditions noted are these: ref [24],[25],[26]; cited from earlier work.

The term inhibition denotes the percentage by which the read-out fell short of the control. Take `CCC1=C(C)CN(C(=O)NCCc2ccc(S(=O)(=O)NC(=O)NC3CCC(C)CC3)cc2)C1=O` (stereo not shown) [Glimepiride, 4-ethyl-3-methyl-N-[2-[4-[(4-methylcyclohexyl)carbamoylsulfamoyl]phenyl]ethyl]-5-oxo-2H-pyrrole-1-carboxamide]: in data set [1], the minimal effective concentration was 12.5 µM, the EC50 came to 5.2 µM and the “Amoebicidal activity against N. fowleri” value worked out at 92%. Besides, in data set [2], the EC50 came to 63.6 µM and the “Amoebicidal activity against B. mandrillaris” value was 54%. The inhibition at 100 µM in data set [3] was determined as 53%. Also, in data set [4], the inhibition at 100 µM was under 10%. In data set [5], the “Cytotoxicity against HaCaT cells” value came out at 6%. Besides, the “BBB Permeability” value in data set [6] was “Positive”.

In the case of `CCOc1cc(CC(=O)N[C@@H](CC(C)C)c2ccccc2N2CCCCC2)ccc1C(=O)O` [Repaglinide, 2-ethoxy-4-[2-[[(1S)-3-methyl-1-(2-piperidin-1-ylphenyl)butyl]amino]-2-oxoethyl]benzoic acid], the minimal effective concentration in data set [1] came out at 50 µM. Further, the EC50 stood at 14.3 µM in data set [1] and 31.8 µM in data set [2]. Also, the inhibition at 100 µM was 49% in data set [3] and under 10% in data set [4]. Besides, the “Cytotoxicity against HaCaT cells” value in data set [5] is reported as “did not exhibit any cytotoxicity”. Besides, the “BBB Permeability” value in data set [6] is listed as “Negative”.

In the case of `CC(C)C1CCC(C(=O)N[C@H](Cc2ccccc2)C(=O)O)CC1` (stereo partly drawn) [Nateglinide, (2R)-3-phenyl-2-[(4-propan-2-ylcyclohexanecarbonyl)amino]propanoic acid], in data set [1], the minimal effective concentration was at least 6.25 µM, the EC50 was found to be 44.4 µM and the “Amoebicidal activity against N. fowleri” value came out at 64%. In data set [2], the EC50 was 136 µM and the “Amoebicidal activity against B. mandrillaris” value is 39%. For the same compound, the inhibition at 100 µM in data set [3] stood at 42%. The inhibition at 100 µM in data set [4] was 57%. In addition, the “Cytotoxicity against HaCaT cells” value in data set [5] came out at 2%. For the same compound, in data set [6], the “BBB Permeability” value is “Positive”.

`N#C[C@@H]1CCCN1C(=O)CNC12CC3CC(CC(O)(C3)C1)C2` [Vildagliptin, (2S)-1-[2-[(3-hydroxy-1-adamantyl)amino]acetyl]pyrrolidine-2-carbonitrile]: in data set [1], the minimal effective concentration was at least 3.13 µM and the EC50 was 100 µM. For the same compound, the “Inhibition of excystation of N. fowleri” value in data set [3] is recorded as “did not inhibit excystation”. Further, the inhibition at 100 µM in data set [4] came to 14%. The “Cytotoxicity against HaCaT cells” value in data set [5] is given as “did not exhibit any cytotoxicity”. Moreover, the “BBB Permeability” value in data set [6] is listed as “Positive”.
